Each block holds one compound with its values, some of them ahead of it.
How the values were obtained:
K562 [1] = experiment: Antiproliferative activity against human K562 cells assessed as cell growth inhibition by SRB assay; assay type: functional
A549 [2] = experiment: Antiproliferative activity against human A549 cells assessed as cell growth inhibition by SRB assay; assay type: functional
MCF7 [3] = experiment: Antiproliferative activity against human MCF7 cells assessed as cell growth inhibition by SRB assay; assay type: functional
HeLa [4] = experiment: Antiproliferative activity against human HeLa cells assessed as cell growth inhibition by SRB assay; assay type: functional
Histone deacetylase 1 [5] = target: T1, Histone deacetylase 1 (Homo sapiens, UniProt Q13547); experiment: Inhibition of HDAC1 in human HeLa cells incubated for 72 hrs by ELISA; assay type: cell-based
T1 sequence (Q13547 whole entry): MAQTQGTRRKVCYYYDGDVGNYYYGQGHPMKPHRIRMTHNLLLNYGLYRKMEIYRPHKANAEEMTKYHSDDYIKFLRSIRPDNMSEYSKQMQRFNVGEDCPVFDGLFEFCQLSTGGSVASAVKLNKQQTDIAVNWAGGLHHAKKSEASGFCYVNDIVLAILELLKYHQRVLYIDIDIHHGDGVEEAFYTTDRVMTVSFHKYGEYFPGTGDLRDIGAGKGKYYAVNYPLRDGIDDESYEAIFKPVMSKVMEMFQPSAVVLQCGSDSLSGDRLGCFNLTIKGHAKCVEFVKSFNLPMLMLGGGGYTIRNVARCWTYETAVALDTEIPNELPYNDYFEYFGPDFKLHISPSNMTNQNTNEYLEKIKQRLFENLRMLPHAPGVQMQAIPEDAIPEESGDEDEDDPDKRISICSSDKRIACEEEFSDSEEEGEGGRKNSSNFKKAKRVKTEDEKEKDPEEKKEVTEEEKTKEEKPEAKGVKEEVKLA

[6] = target: T2, Protein deacetylase HDAC6 (Homo sapiens, UniProt Q9UBN7); experiment: Inhibition of HDAC6 in human HeLa cells incubated for 72 hrs by ELISA; assay type: cell-based
T2 sequence (Q9UBN7 whole entry): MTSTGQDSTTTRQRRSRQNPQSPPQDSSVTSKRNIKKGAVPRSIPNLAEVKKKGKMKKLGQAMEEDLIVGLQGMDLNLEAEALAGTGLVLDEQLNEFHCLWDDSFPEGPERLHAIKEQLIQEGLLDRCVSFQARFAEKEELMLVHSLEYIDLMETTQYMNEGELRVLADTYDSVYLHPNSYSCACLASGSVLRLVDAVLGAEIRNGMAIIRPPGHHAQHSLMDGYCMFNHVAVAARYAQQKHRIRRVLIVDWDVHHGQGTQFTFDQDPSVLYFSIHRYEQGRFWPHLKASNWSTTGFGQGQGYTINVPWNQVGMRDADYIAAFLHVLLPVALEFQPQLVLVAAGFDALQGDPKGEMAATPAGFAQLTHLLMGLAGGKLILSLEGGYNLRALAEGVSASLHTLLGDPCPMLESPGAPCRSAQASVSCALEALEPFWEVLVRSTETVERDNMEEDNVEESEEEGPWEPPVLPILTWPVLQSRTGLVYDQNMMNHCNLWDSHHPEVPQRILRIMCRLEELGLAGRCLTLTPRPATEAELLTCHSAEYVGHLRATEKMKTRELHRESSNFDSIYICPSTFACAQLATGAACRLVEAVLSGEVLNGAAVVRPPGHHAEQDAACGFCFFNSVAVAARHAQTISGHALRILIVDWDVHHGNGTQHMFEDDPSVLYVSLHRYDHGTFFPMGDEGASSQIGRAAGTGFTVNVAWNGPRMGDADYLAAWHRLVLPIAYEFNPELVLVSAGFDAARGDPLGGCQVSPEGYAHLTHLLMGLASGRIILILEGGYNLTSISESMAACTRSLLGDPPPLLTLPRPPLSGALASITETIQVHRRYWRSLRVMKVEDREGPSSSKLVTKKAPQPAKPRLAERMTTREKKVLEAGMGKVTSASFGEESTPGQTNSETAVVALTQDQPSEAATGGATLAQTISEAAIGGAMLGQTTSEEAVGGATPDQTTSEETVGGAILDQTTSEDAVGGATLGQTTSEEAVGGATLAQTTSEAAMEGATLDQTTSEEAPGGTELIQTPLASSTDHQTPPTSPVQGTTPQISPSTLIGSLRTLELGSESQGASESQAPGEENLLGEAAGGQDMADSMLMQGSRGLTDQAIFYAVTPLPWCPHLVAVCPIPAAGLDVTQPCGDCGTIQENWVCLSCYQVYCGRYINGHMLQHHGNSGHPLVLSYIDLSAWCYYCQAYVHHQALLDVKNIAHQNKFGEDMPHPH

[7] = target: T2, Protein deacetylase HDAC6; experiment: Inhibition of HDAC6 (unknown origin)
Histone deacetylase 1 [8] = target: T1, Histone deacetylase 1; experiment: Inhibition of HDAC1 (unknown origin)
[9] = target: Serine/threonine-protein kinase B-raf (Homo sapiens, UniProt P15056); experiment: Inhibition of wild type BRAF (unknown origin)
Chain of Serine/threonine-protein kinase B-raf (P15056 whole entry): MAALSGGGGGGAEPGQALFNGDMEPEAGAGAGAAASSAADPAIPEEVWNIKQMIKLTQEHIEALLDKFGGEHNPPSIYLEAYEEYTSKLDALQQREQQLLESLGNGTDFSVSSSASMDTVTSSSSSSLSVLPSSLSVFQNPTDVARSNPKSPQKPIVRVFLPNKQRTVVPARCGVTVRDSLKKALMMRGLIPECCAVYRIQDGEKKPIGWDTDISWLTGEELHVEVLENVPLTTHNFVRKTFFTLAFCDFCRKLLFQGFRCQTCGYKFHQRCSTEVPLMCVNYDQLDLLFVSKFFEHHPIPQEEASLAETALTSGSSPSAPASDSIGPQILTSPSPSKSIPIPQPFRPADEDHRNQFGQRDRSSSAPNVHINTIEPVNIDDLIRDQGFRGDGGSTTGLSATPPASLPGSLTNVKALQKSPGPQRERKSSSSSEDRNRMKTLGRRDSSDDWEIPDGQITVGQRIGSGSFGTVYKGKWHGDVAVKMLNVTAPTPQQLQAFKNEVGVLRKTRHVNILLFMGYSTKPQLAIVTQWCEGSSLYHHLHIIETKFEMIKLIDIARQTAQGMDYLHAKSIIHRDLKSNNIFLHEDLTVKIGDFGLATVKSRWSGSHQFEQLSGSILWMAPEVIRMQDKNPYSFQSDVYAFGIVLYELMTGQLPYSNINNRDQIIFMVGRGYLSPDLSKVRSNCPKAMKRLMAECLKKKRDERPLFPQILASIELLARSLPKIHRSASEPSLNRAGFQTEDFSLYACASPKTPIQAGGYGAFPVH

HCT-116 [10] = experiment: cells; conditions: Homo sapiens
A549 [11] = experiment: Antiproliferative activity against human A549 cells assessed as inhibition of cell growth incubated for 48 hrs by SRB assay; assay type: functional, cell-based; conditions: A549, 48 h
HCT-116 [12] = experiment: cells; assay type: functional, cell-based; conditions: Homo sapiens, HCT-116, 48 h
HL-60 [13] = experiment: Cytotoxicity against human HL-60 cells assessed as reduction in cell viability incubated for 72 hr by MTT assay; assay type: functional, cell-based; conditions: HL-60, 72 h
K562 [14] = experiment: Cytotoxicity against human K562 cells assessed as reduction in cell viability incubated for 72 hrs by Cell-titer Glo based analysis; assay type: functional; conditions: K562, 72 h
HL-60 [15] = experiment: Cytotoxicity against human HL-60 cells assessed as reduction in cell viability incubated for 72 hrs by Cell-titer Glo based analysis; assay type: functional; conditions: HL-60, 72 h
HPBALL = experiment: Cytotoxicity against human HPBALL cells assessed as reduction in cell viability incubated for 72 hrs by MTT assay; assay type: functional, cell-based
NALM-6 = experiment: Cytotoxicity against human NALM-6 cells assessed as reduction in cell viability incubated for 72 hrs by MTT assay; assay type: functional, cell-based; conditions: NALM-6, 72 h
MOLM-13 = experiment: Antiproliferative activity against human MOLM-13 cells assessed as reduction in cell viability incubated for 72 hrs by MTT assay; assay type: functional, cell-based; conditions: MOLM-13, 72 h
Plasmodium falciparum [16] = experiment: Antiplasmodial activity against Plasmodium falciparum 3D7 assessed as reduction in parasite growth incubated for 3 days by ELISA analysis; assay type: functional, organism-based; conditions: 3D7, 72 h
Plasmodium falciparum [17] = experiment: Antiplasmodial activity against Plasmodium falciparum Dd2 assessed as reduction in parasite growth incubated for 3 days by ELISA analysis; assay type: functional, organism-based; conditions: Dd2, 72 h
Plasmodium falciparum [18] = experiment: Antiplasmodial activity against artemisinin-resistant Plasmodium falciparum Dd2 R539T assessed as reduction in parasite growth incubated for 3 days by ELISA analysis; assay type: functional, organism-based; conditions: 72 h
[19] = target: T2, Protein deacetylase HDAC6; experiment: Inhibition of human recombinant HDAC6 using ZMAL (Z-Lys(Ac)-AMC as fluorogenic substrate pre-incubated for 30 mins followed by substrate addition and measured for 1 hr by Fluorescence based analysis
HepG2 [20] = experiment: Antiproliferative activity against human HepG2 cells measured after 24 hrs by MTT assay; assay type: functional, cell-based; conditions: HepG2, 24 h
HCT-116 [21] = experiment: Antiproliferative activity against human HCT-116 cells measured after 24 hrs by MTT assay; assay type: functional, cell-based; conditions: HCT-116, 24 h
MCF7 [22] = experiment: Antiproliferative activity against human MCF7 cells measured after 24 hrs by MTT assay; assay type: functional, cell-based; conditions: MCF7, 24 h
HeLa [23] = experiment: Antiproliferative activity against human HeLa cells measured after 24 hrs by MTT assay; assay type: functional, cell-based
U-87 MG = experiment: Antiproliferative activity against human U-87 MG cells; assay type: functional, cell-based, U-87MG ATCC
SCC-25 = experiment: Antiproliferative activity against human SCC-25 cells; assay type: functional, cell-based
[24] = Cytotoxicity against HEK293T cells; assay type: toxicity, cell-based, HEK-293T; conditions: human
MCF7 [25] = experiment: cells; conditions: Homo sapiens
K562 [26] = experiment: cells; assay type: functional, cell-based; conditions: Homo sapiens, K562, 72 h
Description: Antiproliferative activity against human K562 cells assessed as inhibition of cell growth measured after 72 hrs by CCK-8 assay

U-266 = experiment: cells; assay type: functional, cell-based; conditions: Homo sapiens, U-266, 72 h
Description: Antiproliferative activity against human U-266 cells assessed as inhibition of cell growth measured after 72 hrs by CCK-8 assay

U-937 = experiment: cells; assay type: functional, cell-based; conditions: Homo sapiens, U-937, 72 h
Description: Antiproliferative activity against human U-937 cells assessed as inhibition of cell growth measured after 72 hrs by CCK-8 assay

C6 = experiment: cells; assay type: functional, cell-based; conditions: Rattus norvegicus, C6, 72 h
Description: Antiproliferative activity against rat C6 cells assessed as inhibition of cell growth measured after 72 hrs by CCK-8 assay

FaDu = experiment: cells; assay type: functional, cell-based; conditions: Homo sapiens, 72 h
Description: Antiproliferative activity against human FaDu cells assessed as inhibition of cell growth measured after 72 hrs by CCK-8 assay

MDA-MB-231 = experiment: cells; assay type: functional, cell-based; conditions: Homo sapiens, MDA-MB-231, 72 h
Description: Antiproliferative activity against human MDA-MB-231 cells assessed as inhibition of cell growth measured after 72 hrs by CCK-8 assay

MDA-MB-468 = experiment: cells; assay type: functional, cell-based; conditions: Homo sapiens, MDA-MB-468, 72 h
Description: Antiproliferative activity against human MDA-MB-468 cells assessed as inhibition of cell growth measured after 72 hrs by CCK-8 assay

A549 [27] = experiment: cells; assay type: functional, cell-based; conditions: Homo sapiens, A549, 72 h
Description: Antiproliferative activity against human A549 cells assessed as inhibition of cell growth measured after 72 hrs by CCK-8 assay

A2780 = experiment: cells; assay type: functional, cell-based; conditions: Homo sapiens, A2780, 72 h
Description: Antiproliferative activity against human A2780 cells assessed as inhibition of cell growth measured after 72 hrs by CCK-8 assay

HepG2 [28] = experiment: cells; assay type: functional, cell-based; conditions: Homo sapiens, HepG2, 72 h
SW-620 = experiment: Antiproliferative activity against human SW620 cells incubated for 48 hrs by colorimetric method; assay type: functional, cell-based; conditions: SW-620, 48 h
PC-3 = experiment: Antiproliferative activity against human PC-3 cells incubated for 48 hrs by colorimetric method; assay type: functional, cell-based; conditions: PC-3, 48 h
NCI-H23 = experiment: Antiproliferative activity against human NCI-H23 cells incubated for 48 hrs by colorimetric method; assay type: functional, cell-based; conditions: NCI-H23, 48 h
[29] = target: T2, Protein deacetylase HDAC6; experiment: Inhibition of HDAC6 (unknown origin) incubated for 30 mins in presence of fluorimetric assay

SMILES: C[C@@H]1CC[C@H]2[C@@H](C)C(OCC(=O)NO)C[C@@H]3O[C@]4(C)CC[C@@H]1[C@]32OO4 (stereo not given in full)
IC50 (HL-60 [13]): 690 nM
IC50 (K562 [14]): 690 nM
IC50 (HL-60 [15]): 690 nM
IC50 (HPBALL): 150 nM
IC50 (NALM-6): 150 nM
IC50 (MOLM-13): 690 nM
IC50 (Plasmodium falciparum [16]): 1.9 nM
IC50 (Plasmodium falciparum [17]): 1.9 nM
IC50 (Plasmodium falciparum [18]): 1.9 nM
IC50 [19]: 187 nM

SMILES: CCCC(CCC)C(=O)O [VALPROIC ACID]
IC50 (HepG2 [20]): 4660 nM
IC50 (HCT-116 [21]): 4660 nM
IC50 (MCF7 [22]): 4660 nM
IC50 (HeLa [23]): 4660 nM

SMILES: O=C(NO)c1c(Cl)cc2c(c1Cl)CCN(C(=O)c1cc3ccccc3[nH]1)C2
IC50 [7]: 0.2 nM
IC50 (U-87 MG): 3110 nM
IC50 (SCC-25): 3110 nM
IC50 [24]: 56900 nM
IC50 (MCF7 [25]): 3110 nM

SMILES: COc1cc(Nc2nc(N3CCN(c4ncc(C(=O)NO)cn4)CC3)ncc2Cl)cc(OC)c1
IC50 (K562 [26]): 280 nM
IC50 (U-266): 280 nM
IC50 (U-937): 280 nM
IC50 (C6): 280 nM
IC50 (FaDu): 280 nM
IC50 (MDA-MB-231): 280 nM
IC50 (MDA-MB-468): 280 nM
IC50 (A549 [27]): 280 nM
IC50 (A2780): 280 nM
IC50 (HepG2 [28]): 280 nM

SMILES: C[C@@H]1CC[C@H]2[C@@H](C)C(SCCC(=O)NO)C[C@@H]3O[C@]4(C)CC[C@@H]1[C@]32OO4 (stereo not given in full)
IC50 (HL-60 [13]): 690 nM
IC50 (K562 [14]): 690 nM
IC50 (HL-60 [15]): 690 nM
IC50 (HPBALL): 150 nM
IC50 (NALM-6): 260 nM
IC50 (MOLM-13): 690 nM
IC50 (Plasmodium falciparum [16]): 1.9 nM
IC50 (Plasmodium falciparum [17]): 1.9 nM
IC50 (Plasmodium falciparum [18]): 1.9 nM
IC50 [19]: 45 nM

SMILES: Cc1ccc(Cn2cnc3cc(/C=C/C(=O)NO)ccc3c2=O)cc1
IC50 (SW-620): 670 nM
IC50 (PC-3): 670 nM
IC50 (NCI-H23): 670 nM
IC50 [29]: 33 nM

Next, values leading:

GI50 (K562 [1]): < 10000 nM
GI50 (A549 [2]): < 10000 nM
GI50 (MCF7 [3]): < 10000 nM
GI50 (HeLa [4]): < 10000 nM
IC50 (Histone deacetylase 1 [5]): 52 nM
IC50 [6]: 52 nM
SMILES: COc1ccc(-c2cn(CCCCCC(=O)NO)c(C)c2C(C)=O)cc1

IC50 [7]: 15.6 nM
IC50 (Histone deacetylase 1 [8]): 15.6 nM
IC50 [9]: 1.71 nM
IC50 (HCT-116 [10]): 310 nM
SMILES: CC(C)(C)c1nc(-c2cccc(NS(=O)(=O)c3c(F)cccc3F)c2F)c(-c2ccnc(NCCCCCCC(=O)NO)n2)s1

IC50 (A549 [11]): 1290 nM
IC50 (HCT-116 [12]): 1290 nM
SMILES: O=C(NO)c1ccc(CNc2cccc3cc(-c4cccnc4)cnc23)cc1

Source: ChEMBL document CHEMBL5614367, “Hydroxamic acid hybrids: Histone deacetylase inhibitors with anticancer therapeutic potency” (Eur J Med Chem, 2023)
